One may read the IC50 as the concentration that inhibits the measured activity by half.

These results are taken from article PMC9090415, “Discovery of small molecule inhibitors of Plasmodium falciparum apicoplast DNA polymerase” (Journal of Enzyme Inhibition and Medicinal Chemistry, 2022).

SMILES strings stand for the structures.

The target in the assay is P. falciparum apicoplast DNA polymerase (Pf-apPOL) (Plasmodium falciparum, UniProt Q8ILY1). Description: Fluorescence-based high-throughput DNA polymerase assay (molecular beacon), primary screen and dose-response.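 For % inhibition ApPOL 90': test concentration in µM.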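 For % inhibition apPOL 180': test concentration in µM.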 In kind it is biochemical. The note with it: for DNA Pol: 90 min, 10 µM; for IC50: supplemental file 2, sheet IC50 nontoxic compounds, Pf-apPOL. The procedure, abridged: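 Single-point screening used 10 µM compound with 20 nM polymerase, 20 nM hairpin substrate and 6 µM dNTPs for 90 min at 25 °C. Confirmatory titrations (2.5–80 µM) followed fluorescence at three times, and IC50 was derived from a fit including a cooperativity term n.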
P. falciparum apicoplast DNA polymerase (Pf-apPOL), sequence (Q8ILY1 entry or part of it): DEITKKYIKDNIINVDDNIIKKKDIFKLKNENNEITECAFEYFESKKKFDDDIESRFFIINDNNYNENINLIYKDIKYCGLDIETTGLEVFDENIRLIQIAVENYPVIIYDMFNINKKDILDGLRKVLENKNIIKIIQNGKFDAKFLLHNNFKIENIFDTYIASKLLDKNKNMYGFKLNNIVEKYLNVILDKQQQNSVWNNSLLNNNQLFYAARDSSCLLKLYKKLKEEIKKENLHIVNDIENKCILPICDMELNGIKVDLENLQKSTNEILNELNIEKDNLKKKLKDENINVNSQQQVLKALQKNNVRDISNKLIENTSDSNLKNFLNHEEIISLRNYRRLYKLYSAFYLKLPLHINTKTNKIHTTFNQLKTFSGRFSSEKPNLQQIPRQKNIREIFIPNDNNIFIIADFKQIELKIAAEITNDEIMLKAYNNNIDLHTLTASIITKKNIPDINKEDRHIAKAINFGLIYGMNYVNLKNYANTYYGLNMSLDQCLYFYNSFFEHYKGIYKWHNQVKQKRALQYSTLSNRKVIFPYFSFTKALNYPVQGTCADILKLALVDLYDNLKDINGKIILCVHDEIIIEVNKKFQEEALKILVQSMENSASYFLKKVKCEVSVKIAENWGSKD

[1] abbreviates: 'DNA Pol' of the 186 hits list (screen value).
[2] abbreviates: primary screen value, "DNA Pol".

As for `CCOc1nc2cccc(C(=O)OC(C)OC(=O)OC3CCCCC3)c2n1Cc1ccc(-c2ccccc2-c2nn[nH]n2)cc1` (stereo not drawn) [Molecule 94, CCOc1nc2c(n1Cc1ccc(cc1)c1ccccc1c1n[nH]nn1)c(ccc2)C(=O)OC(OC(=O)OC1CCCCC1)C], the “DNA Pol” value is, setting by setting: under setting [1], 88; under setting [2], 88. For the same compound, the “% inhibition Apo pol 10'” value runs as follows: (DRC-1, conc 2.5) 6.803%; (DRC-1, conc 5) 16.1591%; (DRC-1, conc 10) 73.0339%; (DRC-1, conc 20) 91.1%; (DRC-1, conc 40) 96.7244%; (DRC-1, conc 80) 98.4846%. Also, the “% inhibition Apol 90'” value by setting is: (DRC-1, conc 2.5) 4.826%; (DRC-1, conc 5) 16.7075%; (DRC-1, conc 10) 71.8878%; (DRC-1, conc 20) 89.9299%; (DRC-1, conc 40) 93.9408%; (DRC-1, conc 80) 94.456%. Also, the “% inhibition apPOL 180'” value (DRC-1, conc 2.5) amounted to 1.0757%; the “% inhibition apPOL 180'” value (DRC-1, conc 5) was 11.5491%; the “% inhibition apPOL 180'” value (DRC-1, conc 10) worked out at 64.6519%; the “% inhibition apPOL 180'” value (DRC-1, conc 20) is 87.4687%; the “% inhibition apPOL 180'” value (DRC-1, conc 40) is recorded as 92.7393%; the “% inhibition apPOL 180'” value (DRC-1, conc 80) worked out at 93.1007%. Also, the “% inhibition apPOL 180'” value reads like this: (DRC-2, conc 2.5) 4.45%; (DRC-2, conc 5) 14%; (DRC-2, conc 10) 53%; (DRC-2, conc 20) 69%; (DRC-2, conc 40) 75%; (DRC-2, conc 80) 75%. Moreover, the “% inhibition apPOL 180'” value by setting is: (DRC-2, concentration 5) 14%; (DRC-2, concentration 40) 75%; (DRC-2, concentration 80) 75%. Besides, the “% inhibition Apo pol 5'” value (DRC-2, conc 2.5) is recorded as 8%; the “% inhibition Apo pol 5'” value (DRC-2, conc 5) is on record as 14%; the “% inhibition Apo pol 5'” value (DRC-2, conc 10) is recorded as 46%; the “% inhibition Apo pol 5'” value (DRC-2, conc 20) was found to be 55%; the “% inhibition Apo pol 5'” value (DRC-2, conc 40) came to 61%; the “% inhibition Apo pol 5'” value (DRC-2, conc 80) was 61%. In addition, the “% inhibition Apo pol 5'” value reads like this: (DRC-2, concentration 5) 14%; (DRC-2, concentration 40) 61%; (DRC-2, concentration 80) 61%. The “% inhibition Apol 40'” value is, setting by setting: (DRC-2, conc 2.5) 11%; (DRC-2, conc 5) 19%; (DRC-2, conc 10) 59%; (DRC-2, conc 20) 71%; (DRC-2, conc 40) 74%; (DRC-2, conc 80) 74%. Besides, the “% inhibition Apol 40'” value (DRC-2, concentration 5) came to 19%; the “% inhibition Apol 40'” value (DRC-2, concentration 10) is 59%; the “% inhibition Apol 40'” value (DRC-2, concentration 40) was 74%; the “% inhibition Apol 40'” value (DRC-2, concentration 80) came to 74%. For the same compound, the “% inhibition ApPOL 90'” value is given as 9% (DRC-2, conc 2.5); 19% (DRC-2, conc 5); 59% (DRC-2, conc 10); 73% (DRC-2, conc 20); 77% (DRC-2, conc 40); 77% (DRC-2, conc 80). Further, the “% inhibition ApPOL 90'” value by setting is: (DRC-2, concentration 5) 19%; (DRC-2, concentration 10) 59%; (DRC-2, concentration 40) 77%; (DRC-2, concentration 80) 77%.

`COc1ccc(C)cc1NC(=O)Cn1ccc2c(=O)[nH]ccc21` [Molecule 15]: the 50% inhibitory concentration (IC50) was found to be 7.23 µM.

In the case of `O=C(Cn1ccc2c(=O)[nH]ccc21)Nc1ccccc1Cl` [Molecule 19], the IC50 amounted to 6.87 µM.

For the compound `CC(NC(=O)Cc1cc(=O)[nH]c(SCc2cccc(Cl)c2)n1)c1ccccc1` (stereo not drawn) [Molecule 67], the 50% inhibitory concentration (IC50) stood at 23.3 µM.

As to `Cc1cccc(C2=N/C(=C\c3ccc([N+](=O)[O-])o3)C(=O)O2)c1` [KU0058960], the “DNA Pol” value is recorded as 79 under setting [1] and 79 under setting [2]. Also, the “% inhibition Apo pol 10'” value reads like this: (DRC-1, conc 2.5) 31.9938%; (DRC-1, conc 5) 37.9558%; (DRC-1, conc 10) 61.5267%; (DRC-1, conc 20) 80.2962%; (DRC-1, conc 40) 86.7912%; (DRC-1, conc 80) 87.9713%. The “% inhibition Apol 90'” value was found to be 16.0415% (DRC-1, conc 2.5); 19.2427% (DRC-1, conc 5); 39.4275% (DRC-1, conc 10); 66.6869% (DRC-1, conc 20); 86.2407% (DRC-1, conc 40); 92.5412% (DRC-1, conc 80). The “% inhibition apPOL 180'” value was determined as 6.3408% (DRC-1, conc 2.5); 6.493% (DRC-1, conc 5); 24.2065% (DRC-1, conc 10); 52.0492% (DRC-1, conc 20); 83.7016% (DRC-1, conc 40); 94.2271% (DRC-1, conc 80). For the same compound, the “% inhibition apPOL 180'” value (DRC-2, conc 2.5) turned out to be 1.68%; the “% inhibition apPOL 180'” value (DRC-2, conc 5) is 7%; the “% inhibition apPOL 180'” value (DRC-2, conc 10) is given as 20%; the “% inhibition apPOL 180'” value (DRC-2, conc 20) stood at 36%; the “% inhibition apPOL 180'” value (DRC-2, conc 40) is on record as 63%; the “% inhibition apPOL 180'” value (DRC-2, conc 80) stood at 78%. In addition, the “% inhibition Apo pol 5'” value is, setting by setting: (DRC-2, conc 2.5) 15%; (DRC-2, conc 5) 25%; (DRC-2, conc 10) 37%; (DRC-2, conc 20) 45%; (DRC-2, conc 40) 51%; (DRC-2, conc 80) 48%. Besides, for the setting “DRC-2, concentration 10”, the “% inhibition Apo pol 5'” value came out at 37%. The “% inhibition Apol 40'” value came to 12% (DRC-2, conc 2.5); 23% (DRC-2, conc 5); 37% (DRC-2, conc 10); 50% (DRC-2, conc 20); 64% (DRC-2, conc 40); 69% (DRC-2, conc 80). In addition, the “% inhibition Apol 40'” value (DRC-2, concentration 10) turned out to be 37%. Besides, the “% inhibition ApPOL 90'” value by setting is: (DRC-2, conc 2.5) 9%; (DRC-2, conc 5) 19%; (DRC-2, conc 10) 33%; (DRC-2, conc 20) 47%; (DRC-2, conc 40) 66%; (DRC-2, conc 80) 74%.

Turning to `Cc1ccc(NC(=O)Cn2ccc3c(=O)[nH]ccc32)cc1F` [Molecule 48], the IC50 was 15.3 µM.
